This assay deals with PIK3CA (human) (UniProt P42336). The assay can be described thus: Cell-Based Assay. The conditions noted are these: bt20.
PIK3CA (human), sequence (P42336 whole entry, looked up): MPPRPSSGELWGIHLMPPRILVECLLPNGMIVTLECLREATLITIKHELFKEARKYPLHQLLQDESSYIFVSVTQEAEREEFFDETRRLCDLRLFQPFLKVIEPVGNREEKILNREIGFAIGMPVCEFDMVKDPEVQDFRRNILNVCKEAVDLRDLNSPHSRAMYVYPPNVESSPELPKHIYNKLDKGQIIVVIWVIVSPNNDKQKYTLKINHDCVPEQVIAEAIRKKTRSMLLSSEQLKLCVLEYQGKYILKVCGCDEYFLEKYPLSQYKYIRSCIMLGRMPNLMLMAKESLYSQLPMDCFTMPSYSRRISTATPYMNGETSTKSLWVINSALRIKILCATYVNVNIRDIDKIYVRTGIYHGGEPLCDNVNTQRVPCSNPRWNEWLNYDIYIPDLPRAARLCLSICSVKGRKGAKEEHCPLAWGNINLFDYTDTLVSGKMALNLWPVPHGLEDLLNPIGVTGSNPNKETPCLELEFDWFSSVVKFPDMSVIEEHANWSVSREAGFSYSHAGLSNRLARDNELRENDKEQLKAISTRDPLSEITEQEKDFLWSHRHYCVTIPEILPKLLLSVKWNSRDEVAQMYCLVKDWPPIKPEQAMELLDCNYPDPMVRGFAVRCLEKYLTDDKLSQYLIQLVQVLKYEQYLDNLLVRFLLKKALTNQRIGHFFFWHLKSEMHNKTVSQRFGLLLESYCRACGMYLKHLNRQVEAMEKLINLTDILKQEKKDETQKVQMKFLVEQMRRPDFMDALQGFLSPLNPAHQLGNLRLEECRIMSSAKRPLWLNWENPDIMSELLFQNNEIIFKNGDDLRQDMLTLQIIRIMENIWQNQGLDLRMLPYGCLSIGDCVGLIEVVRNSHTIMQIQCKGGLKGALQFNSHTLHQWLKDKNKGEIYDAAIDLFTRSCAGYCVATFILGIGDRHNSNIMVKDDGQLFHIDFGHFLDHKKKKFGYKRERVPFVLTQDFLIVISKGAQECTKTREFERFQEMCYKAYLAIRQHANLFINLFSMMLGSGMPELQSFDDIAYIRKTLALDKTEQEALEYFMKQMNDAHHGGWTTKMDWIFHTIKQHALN
In the case of `CCNC(=O)N1CCC(n2c(=O)n(C)c3cnc4ccc(-c5cnc6ccccc6c5)nc4c32)CC1`, the IC50 is 17 nM.
On to `Cn1c(=O)n(C2CCN(C(=O)CO)CC2)c2c3nc(-c4cnc5[nH]ncc5c4)ccc3ncc21`, for which the IC50 was 59.4 nM.
`CC(=O)N1CCC(n2c(=O)n(C)c3cnc4ccc(-c5ccc(S(C)(=O)=O)cc5)nc4c32)CC1`: the IC50 was 2580 nM.
Next, `C[C@@H](O)C(=O)N1CCC(n2c(=O)n(C)c3cnc4ccc(-c5ccc(N(C)C)nc5)nc4c32)CC1`: 5.53 nM; `CN(C)c1ccc(-c2ccc3ncc4c(c3n2)n(C2CCN(C(N)=O)CC2)c(=O)n4C)cn1`: 35.8 nM.
`COc1ncc(-c2ccc3ncc4c(c3n2)n(C2CCN(CC(=O)N(C)C)CC2)c(=O)n4C)cn1` had an IC50 of 37 nM.
Molecule `COc1ccc(-c2ccc3ncc4[nH]c(=O)n([C@H]5CC[C@H](OCCO)CC5)c4c3n2)cn1` had a 50% inhibitory concentration (IC50) of 38.4 nM.
Turning to `Cn1c(=O)n([C@H]2CC[C@H](O)CC2)c2c3nc(-c4cnn(CCO)c4)ccc3ncc21`, the IC50 was found to be 448 nM.
Next, `Cn1c(=O)n(C2CCNCC2)c2c3nc(-c4cnn(CCO)c4)ccc3ncc21`: 3210 nM; `CNC(=O)Nc1ccc(-c2ccc3ncc4c(c3n2)n(C2CCN(C(=O)[C@H](C)O)CC2)c(=O)n4C)cc1`: 81.5 nM.
Take `COc1ccc(-c2ccc3ncc4c(c3n2)n(C2CCN(C(=O)CN(C)C)CC2)c(=O)n4C)cn1`: the IC50 is 14.4 nM.
The molecule `COc1ncc(-c2ccc3ncc4c(c3n2)n(C2CCN(C)CC2)c(=O)n4C)cn1` yielded an IC50 of 159 nM.
As to `COc1ccc(-c2ccc3ncc4c(c3n2)n(C2CCN(CC(N)=O)CC2)c(=O)n4C)cn1`, the IC50 was found to be 7.14 nM.
Next, `CN(C)CC(=O)N1CCC(n2c(=O)n(C)c3cnc4ccc(-c5cnc6ccccc6c5)nc4c32)CC1`: 18 nM.
As to `COc1ncc(-c2ccc3ncc4[nH]c(=O)n(-c5ccc(C(C)(C)C#N)cc5)c4c3n2)cc1F`, the IC50 is 197 nM. Compared with the last molecule, the IC50 is about 11-fold higher.
On to `COc1ncc(-c2ccc3ncc4c(c3n2)n(C2CCN(CCO)CC2)c(=O)n4C)cn1`, for which the IC50 was 124 nM.
With `Cn1cc(-c2ccc3ncc4c(c3n2)n([C@H]2CC[C@H](C(N)=O)CC2)c(=O)n4C)cn1` the figure was 224 nM.
With `CCNC(=O)Nc1ccc(-c2ccc3ncc4c(c3n2)n(C2CCN(C(=O)OC(C)(C)C)CC2)c(=O)n4C)cc1` the figure was 39.9 nM.
For `CCN1CCC(n2c(=O)n(C)c3cnc4ccc(-c5cnc6ccccc6c5)nc4c32)CC1`, the IC50 was found to be 11.7 nM.
With `CC(=O)N1CCC(n2c(=O)n(C)c3cnc4ccc(-c5cnc6ccccc6c5)nc4c32)CC1` the figure was 4.59 nM.
Next, `COc1ccc(-c2ccc3ncc4[nH]c(=O)n(Cc5ccccc5)c4c3n2)cn1`: 24.5 nM.
Next, `CC(=O)N1CCC(n2c(=O)n(C)c3cnc4ccc(-c5ccc(N)nc5)nc4c32)CC1`: 9.17 nM; `Cn1cc(-c2ccc3ncc4c(c3n2)n(C2CCN(CC(N)=O)CC2)c(=O)n4C)cn1`: 232 nM.
Regarding `CN(C)c1ccc(-c2ccc3ncc4c(c3n2)n(C2CCOCC2)c(=O)n4C)cn1`, the IC50 was 29 nM. This IC50 is about 8-fold lower than that of the molecule before.
With `CN(C)c1ccc(-c2ccc3ncc4c(c3n2)n(C2CCN(CC(F)(F)F)CC2)c(=O)n4C)cn1` the figure was 18.2 nM; with `C[C@H](CO)n1c(=O)n(C)c2cnc3ccc(-c4cnc5[nH]ncc5c4)nc3c21`, 83.8 nM; with `Cc1ccc(-c2ccc3ncc4c(c3n2)n(C2CCNCC2)c(=O)n4C)cn1`, 101 nM.
With `CC(=O)N1CCC(n2c(=O)n(C)c3cnc4ccc(-c5ccc(N(C)C)nc5)nc4c32)CC1` the figure was 17.2 nM.
Next, `Cn1c(=O)n([C@H]2CC[C@H](O)CC2)c2c3nc(-c4ccc5[nH]ncc5c4)ccc3ncc21`: 20.5 nM; `CCOC(=O)N1CCC(n2c(=O)n(C)c3cnc4ccc(-c5cnc6ccccc6c5)nc4c32)CC1`: 20.4 nM; `Cn1c(=O)n([C@H]2CC[C@H](O)CC2)c2c3nc(-c4cnc(N)nc4)ccc3ncc21`: 3.36 nM.
Turning to `CN(C)CC(=O)N1CCC(n2c(=O)n(C)c3cnc4ccc(-c5ccc(N(C)C)nc5)nc4c32)CC1`, the IC50 was 15.3 nM.
As for `Cc1ccc(-c2ccc3ncc4c(c3n2)n([C@H](C)CO)c(=O)n4C)cn1`, the IC50 was determined as 269 nM. This IC50 lies about 18-fold higher than the previous one.
`COc1ncc(-c2ccc3ncc4c(c3n2)n(C2CCN(C(=O)[C@H](C)O)CC2)c(=O)n4C)cn1` had an IC50 of 34.2 nM. Against the preceding molecule, the IC50 is about 7.9-fold lower.
Next, `Cn1c(=O)n(C2CCN(C(=O)C(C)(C)O)CC2)c2c3nc(-c4cnc5ccccc5c4)ccc3ncc21`: 28 nM.
Next, `Cn1c(=O)n(C2CCN(C(=O)C(C)(C)N)CC2)c2c3nc(-c4cnc5ccccc5c4)ccc3ncc21`: 11.7 nM.
Next, `COc1ccc(-c2ccc3ncc4c(c3n2)n([C@@H](C)CO)c(=O)n4C)cn1`: 266 nM; `Cn1c(=O)n(C2CCOCC2)c2c3nc(-c4cn[nH]c4)ccc3ncc21`: 18.3 nM.
Consider `COc1ccc(-c2ccc3ncc4[nH]c(=O)n([C@H]5CC[C@H](O)CC5)c4c3n2)cn1`, for which the IC50 is 46.8 nM. Compared with the last molecule, the IC50 is about 2.6-fold higher.
Next, `Cn1cc(-c2ccc3ncc4c(c3n2)n(C2CCOCC2)c(=O)n4C)cn1`: 71.8 nM; `CC(C)(C#N)c1ccc(-n2c(=O)[nH]c3cnc4ccc(-c5cnc6ccccc6c5)nc4c32)cc1`: 6.47 nM.
With `CN(C)c1ccc(-c2ccc3ncc4c(c3n2)n(C2CCN(C(=O)CO)CC2)c(=O)n4C)cn1` the figure was 6.23 nM; with `COC(=O)N1CCC(n2c(=O)n(C)c3cnc4ccc(-c5cnc6ccccc6c5)nc4c32)CC1`, 8.07 nM.
Regarding `COc1ncc(-c2ccc3ncc4c(c3n2)n(C2CCN(C(=O)CO)CC2)c(=O)n4C)cn1`, the concentration for half-maximal inhibition (IC50) is 27.2 nM.
`COCCn1c(=O)n(C)c2cnc3ccc(-c4ccc(OC)nc4)nc3c21` returned an IC50 of 207 nM.
With `COc1ncc(-c2ccc3ncc4c(c3n2)n([C@H]2CC[C@H](C(N)=O)CC2)c(=O)n4C)cn1` the figure was 45.6 nM.
For the molecule `Cn1cc(-c2ccc3ncc4[nH]c(=O)n(-c5ccc(C(C)(C)C#N)cc5)c4c3n2)cn1`, the half-maximal inhibitory concentration (IC50) came out at 97.3 nM.
In turn, `COCC(=O)N1CCC(n2c(=O)n(C)c3cnc4ccc(-c5cnc6[nH]ncc6c5)nc4c32)CC1` displayed an IC50 of 15.3 nM.
In the case of `CN(C)c1ccc(-c2ccc3ncc4c(c3n2)n([C@H]2CC[C@H](O)CC2)c(=O)n4C)cn1`, the IC50 turned out to be 5.26 nM.
With `Cc1ccc(-c2ccc3ncc4c(c3n2)n(C2CCN(C(N)=O)CC2)c(=O)n4C)cn1` the figure was 112 nM; with `O=C(OCc1ccccc1)N1CCC(n2c(=O)[nH]c3cnc4ccc(-c5cnc6ccccc6c5)nc4c32)CC1`, 32.2 nM; with `COc1ncc(-c2ccc3ncc4[nH]c(=O)n(-c5ccc(C(C)(C)C#N)cc5)c4c3n2)cn1`, 43.9 nM.
As for `COCC(=O)N1CCC(n2c(=O)n(C)c3cnc4ccc(-c5cnc(OC)nc5)nc4c32)CC1`, the half-inhibitory concentration (IC50) was determined as 12.3 nM.
With `Cc1ccc(-c2ccc3ncc4c(c3n2)n(C2CCN(C(=O)CN(C)C)CC2)c(=O)n4C)cn1` the figure was 42.7 nM.
On to `C[C@H](CO)n1c(=O)n(C)c2cnc3ccc(-c4cnc(N)nc4)nc3c21`, for which the IC50 amounted to 331 nM.
With `COc1ncc(-c2ccc3ncc4c(c3n2)n(C2CCN(C(=O)CN(C)C)CC2)c(=O)n4C)cn1` the figure was 175 nM; with `Cn1cc(-c2ccc3ncc4c(c3n2)n([C@H]2CC[C@H](O)CC2)c(=O)n4C)cn1`, 107 nM.
Molecule `CN(C)c1ccc(-c2ccc3ncc4c(c3n2)n(C2CCN(CCO)CC2)c(=O)n4C)cn1` had an IC50 of 32.5 nM.
`Cn1c(=O)n(-c2ccc(C(C)(C)C#N)cc2)c2c3nc(-c4cnc5ccccc5c4)ccc3ncc21` registered an IC50 of 3.54 nM.
Next, `Cc1ccc(-c2ccc3ncc4c(c3n2)n(C2CCOCC2)c(=O)n4CCO)cn1`: 428 nM; `COc1ccc(-c2ccc3ncc4[nH]c(=O)n(-c5ccc(C(C)(C)C#N)cc5)c4c3n2)cn1`: 11.5 nM; `C[C@@H](CO)n1c(=O)n(C)c2cnc3ccc(-c4cnn(C)c4)nc3c21`: 5040 nM.
For `Cc1ccc(-c2ccc3ncc4c(c3n2)n([C@H]2CC[C@H](OCCO)CC2)c(=O)n4C)cn1`, the 50% inhibitory concentration (IC50) was determined as 8.63 nM.
With `CC(=O)N1CCC(n2c(=O)n(C)c3cnc4ccc(-c5ccnc6[nH]ncc56)nc4c32)CC1` the figure was 140 nM; with `COc1ncc(-c2ccc3ncc4c(c3n2)n(C2CCN(C(=O)CN)CC2)c(=O)n4C)cn1`, 184 nM; with `Cn1c(=O)n([C@H]2CC[C@H](O)CC2)c2c3nc(-c4cc[nH]n4)ccc3ncc21`, 264 nM.
Next, `Cn1c(=O)n([C@H]2CC[C@H](O)CC2)c2c3nc(-c4cccc5[nH]ccc45)ccc3ncc21`: 9.61 nM.
With `CNC(=O)N1CCC(n2c(=O)n(C)c3cnc4ccc(-c5ccc(OC)nc5)nc4c32)CC1` the figure was 9.19 nM; with `CN[C@H]1CC[C@H](n2c(=O)n(C)c3cnc4ccc(-c5cnc6ccccc6c5)nc4c32)CC1`, 404 nM; with `CN(C)c1ccc(-c2ccc3ncc4c(c3n2)n(C2CCNCC2)c(=O)n4C)cn1`, 24.6 nM.
Turning to `CN(C)C(=O)CN1CCC(n2c(=O)n(C)c3cnc4ccc(-c5cnn(C)c5)nc4c32)CC1`, the IC50 turned out to be 248 nM.
With `CN1CCC(n2c(=O)n(C)c3cnc4ccc(-c5cnc6[nH]ncc6c5)nc4c32)CC1` the figure was 21.8 nM.
Next, `Cc1ccc(-c2ccc3ncc4c(c3n2)n(C2CCN(CCO)CC2)c(=O)n4C)cn1`: 35.6 nM.
Next, `COCCN1CCC(n2c(=O)n(C)c3cnc4ccc(-c5ccc(N(C)C)nc5)nc4c32)CC1`: 31.8 nM.
For the molecule `CN(C)c1ccc(-c2ccc3ncc4[nH]c(=O)n(-c5ccc(C(C)(C)C#N)cc5)c4c3n2)cn1`, the IC50 is 67.6 nM.
Next, `COc1cccc(-c2ccc3ncc4c(c3n2)n(C2CCN(C(=O)CO)CC2)c(=O)n4C)c1`: 30.4 nM; `COc1ncc(-c2ccc3ncc4c(c3n2)n(C2CCN(C(C)=O)CC2)c(=O)n4C)cn1`: 34.6 nM.
As for `COc1ncc(-c2ccc3ncc4c(c3n2)n([C@H]2CC[C@H](OCCO)CC2)c(=O)n4C)cn1`, the IC50 was determined as 26.3 nM.
With `Cn1cc(-c2ccc3ncc4c(c3n2)n(-c2ccc(C(C)(C)C#N)cc2)c(=O)n4C)cn1` the figure was 116 nM; with `Cn1c(=O)n(C2CCNCC2)c2c3nc(-c4cnc(N)nc4)ccc3ncc21`, 137 nM.
`COc1ncc(-c2ccc3ncc4c(c3n2)n(-c2ccc(C(C)(C)C#N)cc2)c(=O)n4C)cc1F` came in with a half-maximal inhibitory concentration (IC50) of 90.7 nM.

These data come from the Kinase Knowledgebase extract (Sharma et al. 2016).
